Data published in patent US11214803B2, “Modulators of YAP1 expression” (Ionis Pharmaceuticals, Inc., priority 2019, dated 2022).
Strand notation (5' to 3'): a small letter for the sugar, then the base; units joined by * are phosphorothioate-linked, units joined directly phosphodiester-linked; [ ] holds rarer units or linkages, { } end groups; capitals alone tell only the bases. k = constrained ethyl (cEt); [5mC] = 5-methylcytosine; d = 2'-deoxy (DNA)

Columns and labels:
Assay type in all cases: cell-based
Yap1 mRNA [1] = experiment: Antisense inhibition of human Yap1 in A-431 cells by cEt gapmers, single dose (Example 3, RTS36584)
Protocol: Modified oligonucleotides were designed to target a Yap1 nucleic acid and were tested for their effect on Yap1 mRNA level in vitro. The modified oligonucleotides were tested in a series of experiments that had similar culture conditions. Cultured A-431 cells at a density of 5,000 cells per well were treated using free uptake with 2,000 nM of modified oligonucleotide. After a treatment period of approximately 48 hours, RNA was isolated from the cells and Yap1 mRNA levels were measured by quantitative real-time RTPCR. Human primer probe set RTS36584 (forward sequence […], designated herein as SEQ ID NO.: 14; reverse sequence […], designated herein as SEQ ID NO.: 15; probe sequence […], designated herein as SEQ ID NO.: 16) was used to measure mRNA levels. Yap1 mRNA levels were normalized to total RNA content, as measured by RIBOGREEN®. Results are presented in the tables below as percent control of the amount of Yap1 mRNA relative to untreated control cells (% UTC). The modified oligonucleotides with percent control values marked with an asterisk (*) target the amplicon region of the primer probe set. Additional assays may be used to measure the potency and efficacy of the modified oligonucleotides targeting the amplicon region.
The newly designed modified oligonucleotides in the Tables below were designed as 3-10-3 cEt gapmers. The gapmers are 16 nucleosides in length, wherein the central gap segment comprises of ten 2′-deoxynucleosides and is flanked by wing segments on the 5′ direction and the 3′ direction comprising three nucleosides each. Each nucleoside in the 5′ wing segment and each nucleoside in the 3′ wing segment has a cEt sugar modification. The internucleoside linkages throughout each gapmer are phosphorothioate (P═S) linkages. All cytosine residues throughout each gapmer are 5-methylcytosines.
“Start site” indicates the 5′-most nucleoside to which the gapmer is targeted in the human gene sequence. “Stop site” indicates the 3′-most nucleoside to which the gapmer is targeted human gene sequence. […] Activity of the modified oligonucleotide may be defined in a different experiment.

Yap1 mRNA [2] = experiment: Antisense inhibition of human Yap1 in SNU-449 cells by modified oligonucleotides, single dose (Example 5, RTS36584)
Outline: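 Plate SNU-449 cells at 10,000 per well; add 2,000 nM modified oligonucleotide without transfection reagent; after ~48 h isolate RNA, run qRT-PCR with RTS36584, normalise to RIBOGREEN and report % UTC.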

Yap1 mRNA [3] = experiment: Antisense inhibition of human Yap1 in A-431 cells by cEt gapmers, single dose (Example 2, RTS4814)
Outline: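 Single-dose knockdown screen of 3-10-3 cEt phosphorothioate gapmers at 2,000 nM added by free uptake to A-431 cells. After roughly 48 h, RNA was isolated and Yap1 transcript measured by RT-qPCR, with results given as % UTC.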

[4] = Table 28, Yap1 mRNA as percent of untreated control, 3-10-3 cEt gapmers targeting SEQ ID NO.: 1, and 2
[5] = Table 10, A-431 cells, 5,000 cells per well, free uptake, 2,000 nM oligonucleotide, approx. 48 hours, primer probe set RTS36584, Yap1 mRNA normalized to RIBOGREEN, percent of untreated control
[6] = Table 9, A-431 cells, 5,000 cells per well, free uptake, 2,000 nM, approximately 48 hours, RTS36584, normalized to RIBOGREEN, Yap1 mRNA relative to untreated control cells
[7] = Table 29, Yap1 mRNA as percent of untreated control, 3-10-3 cEt gapmers targeting SEQ ID NO.: 1, and 2
[8] = Table 12, A-431 cells, 5,000 cells per well, free uptake, 2,000 nM modified oligonucleotide, approx. 48 hours, RTS36584, normalized to RIBOGREEN, Yap1 mRNA relative to untreated control cells
[9] = Table 26, Yap1 mRNA by 3-10-3 cEt gapmers targeting SEQ ID NO.: 1, and 2, percent of untreated control
[10] = Yap1 mRNA, percent of untreated control, modified oligonucleotides targeting SEQ ID NO: 1 and 2, Table 47

1076270 (kT*kA*kA*d[5mC]*dA*dA*dT*dA*dG*dT*dA*dG*dA*k[5mC]*kG*kA; antisense) [compound 1076270]
YAP1 (% UTC) (Yap1 mRNA [1]; [4]): 28 % UTC

958717 (antisense kA*kA*kT*dA*dA*dT*dA*dT*dA*dG*d[5mC]*dT*dT*kA*k[5mC]*kG) [Compound 958717]
YAP1 (% UTC) (Yap1 mRNA [1]; [5]): 11 % UTC

958711 (antisense k[5mC]*k[5mC]*kA*dA*dA*dT*dA*dA*dG*dG*dA*dT*d[5mC]*kT*kG*kT) [Compound 958711]
YAP1 (% UTC) (Yap1 mRNA [1]; [6]): 34 % UTC

958511 (k[5mC]*kA*k[5mC]*dT*dA*d[5mC]*d[5mC]*dA*d[5mC]*dA*d[5mC]*dT*dA*kT*kT*kA; antisense) [Compound 958511]
YAP1 (% UTC) (Yap1 mRNA [1]; [6]): 31 % UTC

1074223 (antisense kG*kA*kA*dA*d[5mC]*dA*dG*d[5mC]*dT*d[5mC]*d[5mC]*d[5mC]*dA*kA*k[5mC]*kT) [compound 1074223]
YAP1 (% UTC) (Yap1 mRNA [1]; [7]): 48 % UTC

958722 (antisense k[5mC]*kA*kT*dA*dA*dT*dA*dG*dG*dA*d[5mC]*dA*d[5mC]*kA*kA*k[5mC]) [Compound 958722]
YAP1 (% UTC) (Yap1 mRNA [1]; [5]): 59 % UTC

958489 (kT*kT*k[5mC]*dT*dA*dA*dG*dT*d[5mC]*dT*dG*dA*dG*kT*kA*kT; antisense) [Compound 958489]
YAP1 (% UTC) (Yap1 mRNA [1]; [8]): 14 % UTC

1076204 (kG*kA*kT*dA*dA*dT*dG*dA*dA*dT*d[5mC]*d[5mC]*dT*kT*kG*kT; antisense) [compound 1076204]
YAP1 (% UTC) (Yap1 mRNA [1]; [9]): 11 % UTC

1075341 (antisense kG*k[5mC]*kT*dG*dA*dA*d[5mC]*dA*dA*dT*d[5mC]*dT*d[5mC]*k[5mC]*k[5mC]*kG) [compound 1075341]
YAP1 (% UTC) (Yap1 mRNA [1]; Table 27, Yap1 mRNA by 3-10-3 cEt gapmers targeting SEQ ID NO.: 1, and 2, percent of untreated control): 31 % UTC

1075759 (k[5mC]*k[5mC]*kT*dT*dA*dT*dA*dA*dA*dT*dT*dA*dT*kG*kA*k[5mC]; antisense) [compound 1075759]
YAP1 (% UTC) (Yap1 mRNA [1]; [7]): 44 % UTC

1074388 (kG*kA*k[5mC]*dT*dT*dG*dG*d[5mC]*dA*dT*d[5mC]*dA*dG*k[5mC]*kT*k[5mC]; antisense) [compound 1074388]
YAP1 (% UTC) (Yap1 mRNA [1]; Table 34, Yap1 mRNA as percent of untreated control, 3-10-3 cEt gapmers targeting SEQ ID NO: 1 and 2, single dose): 16 % UTC

1074124 (kG*kG*k[5mC]*dT*dG*d[5mC]*dG*dA*dG*dG*d[5mC]*dA*d[5mC]*kT*k[5mC]*kG; antisense) [compound 1074124]
YAP1 (% UTC) (Yap1 mRNA [1]; [9]): 94 % UTC

958642 (antisense kG*kA*k[5mC]*dA*dT*d[5mC]*dA*dA*dT*dT*dT*d[5mC]*dA*kG*kT*k[5mC]) [Compound 958642]
YAP1 (% UTC) (Yap1 mRNA [1]; [5]): 91 % UTC

958439 (antisense kG*k[5mC]*kG*d[5mC]*d[5mC]*d[5mC]*d[5mC]*dG*dG*d[5mC]*dT*d[5mC]*d[5mC]*kA*k[5mC]*kT) [Compound 958439]
YAP1 (% UTC) (Yap1 mRNA [1]; [8]): 77 % UTC

958811 (k[5mC]*kA*k[5mC]*dT*dG*dA*dG*dG*d[5mC]*dA*d[5mC]*dG*dG*k[5mC]*k[5mC]*k[5mC]; antisense) [Compound 958811]
YAP1 (% UTC) (Yap1 mRNA [1]; [6]): 92 % UTC

958797 (antisense kA*k[5mC]*kG*dA*dG*d[5mC]*dA*d[5mC]*dA*dG*d[5mC]*dA*d[5mC]*k[5mC]*k[5mC]*kT) [Compound 958797]
YAP1 (% UTC) (Yap1 mRNA [1]; [5]): 13 % UTC

1074958 (antisense kT*kA*kA*d[5mC]*d[5mC]*d[5mC]*dG*dG*dG*dT*dT*dT*dT*kT*kG*kT) [compound 1074958]
YAP1 (% UTC) (Yap1 mRNA [1]; [4]): 107 % UTC

958679 (kG*kT*kA*dA*d[5mC]*dT*dG*d[5mC]*d[5mC]*dA*d[5mC]*dA*dG*kT*kT*kA; antisense) [Compound 958679]
YAP1 (% UTC) (Yap1 mRNA [1]; [8]): 77 % UTC

716444 (kA*kA*kA*dT*dT*dG*dT*d[5mC]*dT*d[5mC]*dA*dT*dG*k[5mC]*k[5mC]*kT) [Compound 716444]
YAP1 (% UT) (Yap1 mRNA [2]; [10]): 46 % UT
YAP1 (% UTC) (Yap1 mRNA [3]; Table 6, A-431 cells, 5,000 cells per well, free uptake, 2,000 nM modified oligonucleotide, approx. 48 hours, RTS4814, normalized to RIBOGREEN, Yap1 mRNA relative to untreated control cells): 40 % UTC

1074756 (kG*k[5mC]*kA*d[5mC]*dT*dT*dT*dT*dA*d[5mC]*dA*dT*dT*kA*kG*kG) [Compound 1074756]
YAP1 (% UT) (Yap1 mRNA [2]; [10]): 8 % UT
YAP1 (% UTC) (Yap1 mRNA [3]; Table 18, A-431 cells, 5,000 cells per well, free uptake, 2,000 nM modified oligonucleotide, approx. 48 hours, RTS4814, normalized to RIBOGREEN, Yap1 mRNA as percent of untreated control): 3 % UTC

1076456 (antisense k[5mC]*kT*kT*dT*dA*dA*dA*dG*dT*dG*dT*dA*dT*kG*kT*k[5mC]) [Compound 1076456]
YAP1 (% UT) (Yap1 mRNA [2]; Table 48, Yap1 mRNA level relative to untreated control, modified oligonucleotides targeting SEQ ID NO.: 1 and 2): 44 % UT
YAP1 (% UTC) (Yap1 mRNA [3]; Table 22, Yap1 mRNA as percent of untreated control, 3-10-3 cEt gapmers, single dose): 2 % UTC
